“And” between values parts separate entries of the source, which are not always exact repeats. Equal values may be shown once.
Columns and labels:
MCF7 cells = test: CMap analysis using psoriasis disease signature against mRNA expression profiles of compound-treated MCF7 cells (Assay #1); type: cell-based, human
Description: A general overview of the experimental protocol is indicated below.
The flask is incubated at 37 C for ˜2 minutes to dissociate the cells. • The dissociated cells are harvested with culture media, ˜10 ml/flask. • The harvested cell suspensions are pooled and re-suspended to ensure a homogenous suspension. • The suspension is divided into approximately 1e10̂6 cells per well. • The cells are spun down and re-suspended in fresh culture media to 1e10̂6 cells/2 mL media. • 2 ml of the adjusted cell suspension is dispensed into each well of 6-well plates. • The 6-well plates are incubated overnight at approximately 37 C: 5% CO2.
• An assay block, containing 3 ul 10 mM compound (small molecule)/well, is allowed to return to room temperature. • Culture media is warmed to 37 C. • 600 ul culture media is added to each well of assay block (containing 3 ul 10 mM compound). (=200× dilution) • Intermediate dilution is then 50 uM. • 500 ul of the intermediate dilution is transferred directly on to cells in 6-wells plated (in 2 ml) from previous day. (=5× dilution) • Cells then have 2.5 ml media on them. Final compound concentration is then 10 uM, final DMSO concentration is then 0.1%. • Treated cells are then returned to the incubator and treatment time is noted. • By way of example, if the final treatment concentration is to be something other than 10 uM, the stock should be adjusted first in DMSO so that the […] dilution still delivers 0.1% DMSO final.
• Fresh RLT buffer (QIAGEN)+2-Me is prepared. • After 6 hours of treatment, the 6-well plates are removed from incubator. • The test compound is aspirated from the cell monolayer. • 350 ul of RLT buffer is added per well. • Cells are scraped and the contents of each well is transferred to an appropriately labeled microfuge tube. • Freeze and store the samples at −80 C.
Frozen samples were shipped to Expression Analysis, Inc. Durham N.C. (EA) to generate RNA profiling data. To generate whole genome RNA expression profiles, samples were processed for RNA purification and hybridization to IllumanHT-12-V4 Expression BeadChips.
The significance of particular set of compound instance(s) of interest is estimated by permutation pvalue.

primary keratinocytes = test: CMap analysis using psoriasis disease signature against mRNA expression profiles of compound-treated primary keratinocytes (Assay #2); type: cell-based, human; details: for Ks down / Ks up / Raw Score / Scale Score: Keratinocyte
Description: The general procedure of Assay #1 was repeated with Compound C with substitution of primary keratinocytes. Primary keratinocytes were purchased from Zen-Bio, Inc. and grown in Zen-Bio, Inc. human adult keratinocyte growth medium (cat# KM-2).
Following the general procedure of Assay #1 for Day 1, keratinocytes plated on T225 flasks were trypsinized and resuspended in 17.4 mL of KM-2 medium. The cells were then seeded in the 6-well plates with 0.5×10^6 cells per well in a total 4 mL KM-2 medium.
Following the general procedure of Assay #1 for Day 2, keratinocytes were treated with the compound at the final concentrations of 1 uM and 10 uM for 6 hours. KM-2 medium containing test compound is aspirated from the cell monolayer. 350 ul of RLT buffer is added per well, the contents in each well were scraped and transferred to an appropriately labeled microfuge tube. Samples were frozen and stored at −80 C.
The subsequent sample processing, RNA purification and hybridization to the chips for microarray experiments were conducted by Expression Analysis, Inc. Durham N.C. (EA).

plaques of psoriasis = test: Clinical result: psoriasis plaques in a patient of cancer trial PCS113124; type: in vivo; details: human, patient 1200
Excerpt: Compound C was in human clinical trials for the treatment of cancer.

Cn1ncc(Cl)c1-c1cc(C(=O)N[C@H](CN)Cc2ccc(F)c(F)c2)oc1Cl [Compound C, N-{(1S)-2-amino-1-[(3,4-difluorophenyl)methyl]ethyl}-5-chloro-4-(4-chloro-1-methyl-1H-pyrazol-5-yl)-2-furancarboxamide]
Enrichment Score (MCF7 cells; MCF7, 10 uM, 6 hours treatment): −0.8835
Mean CMap Score (MCF7 cells; MCF7, 10 uM, 6 hours treatment): −0.1867
CMap Score Distribution (MCF7 cells; MCF7, 10 uM, 6 hours treatment, individual instance scores): (−0.17 −0.17 and −0.21)
gene expression changes versus gene expression changes observed in psoriasis (MCF7 cells; MCF7 cells): negatively correlated
Ks down (primary keratinocytes; 1 uM, Day 1): 0.112
Ks up (primary keratinocytes; 1 uM, Day 1): −0.22
Raw Score (primary keratinocytes; 1 uM, Day 1): −0.3324
Scale Score (primary keratinocytes; 1 uM, Day 1): −0.6723
Ks down (primary keratinocytes; 1 uM, Day 2): 0.172
Ks up (primary keratinocytes; 1 uM, Day 2): −0.248
Raw Score (primary keratinocytes; 1 uM, Day 2): −0.4204
Scale Score (primary keratinocytes; 1 uM, Day 2): −0.8504
Ks down (primary keratinocytes; 1 uM, Day 3): 0.124
Ks up (primary keratinocytes; 1 uM, Day 3): −0.139
Raw Score (primary keratinocytes; 1 uM, Day 3): −0.2625
Scale Score (primary keratinocytes; 1 uM, Day 3): −0.5309
Ks down (primary keratinocytes; 10 uM, Day 1): 0.112
Ks up (primary keratinocytes; 10 uM, Day 1): −0.213
Raw Score (primary keratinocytes; 10 uM, Day 1): −0.3251
Scale Score (primary keratinocytes; 10 uM, Day 1): −0.6576
Ks down (primary keratinocytes; 10 uM, Day 2): 0.115
Ks up (primary keratinocytes; 10 uM, Day 2): −0.296
Raw Score (primary keratinocytes; 10 uM, Day 2): −0.4104
Scale Score (primary keratinocytes; 10 uM, Day 2): −0.8302
Ks down (primary keratinocytes; 10 uM, Day 3): 0.114
Ks up (primary keratinocytes; 10 uM, Day 3): −0.241
Raw Score (primary keratinocytes; 10 uM, Day 3): −0.3551
Scale Score (primary keratinocytes; 10 uM, Day 3): −0.7182
gene expression changes versus gene expression changes observed in psoriasis (primary keratinocytes; primary keratinocytes): negatively correlated
course of mild plaques of psoriasis during treatment (plaques of psoriasis): generally got better and even disappeared at times
